The source of these data is ChEMBL document CHEMBL1156829 (Proc Natl Acad Sci U S A, 2008).

The test system of data set [1] is Plasmodium falciparum. Kind of data set: NOVARTIS: Inhibition of Plasmodium falciparum W2 (drug-resistant) proliferation in erythrocyte-based infection assay. The data set is classed as functional, organism-based. To be noted: Plasmodium falciparum, W2; read-out: EC50.
The subject of data set [2] is Plasmodium falciparum. Kind of data set: NOVARTIS: Inhibition of Plasmodium falciparum 3D7 (drug-susceptible) proliferation in erythrocyte-based infection assay. Format: functional, organism-based. To be noted: Plasmodium falciparum, 3D7.
A short description of data set [3]: NOVARTIS: Cytotoxicity against human hepatocellular carcinoma cell line (Huh7). The data set is classed as toxicity, cell-based, Huh-7. The following applies: Huh7 cells (hepatocellular carcinoma cell line).

For `O=C(NCc1ccco1)C1CCN(S(=O)(=O)c2ccc(Cl)cc2)CC1`, the EC50 worked out at 355 nM in the data set on Plasmodium falciparum [1] and 514 nM in the data set with Plasmodium falciparum [2]. The compound also registered a CC50 in data set [3] above 100 µM.
With `COC(=O)c1ccc(C2C3=C(CC(c4ccc(OC)cc4)CC3=O)Nc3ccccc3N2C(=O)c2ccccc2)cc1` (centres undefined), the EC50 in the data set on Plasmodium falciparum [1] came to 368 nM; in the data set on Plasmodium falciparum [2], 427 nM. In data set [3], this compound gave a CC50 above 100 µM.
The corresponding values for `COc1ccccc1N1CCN(C(=O)CCCCSc2nnc3c4cc(F)ccc4n(Cc4ccc(F)cc4)c3n2)CC1` are 207 nM, 265 nM and above 57.7 µM.
The corresponding values for `Nc1ccc(-c2nc3cc(Cc4ccc5[nH]c(-c6ccc(N)cc6)nc5c4)ccc3[nH]2)cc1` are 63.4 nM, 243 nM and 17.9 µM.
In the case of `CN(C)c1ccc(C=CC(=O)NC(=O)c2ccccc2O)cc1`, the EC50 with Plasmodium falciparum [1] was 358 nM; in the data set on Plasmodium falciparum [2] it was 118 nM. In data set [3], this compound registered a CC50 above 100 µM.
For the compound `O=C1CC(c2ccccc2)CC2=C1C(c1ccccc1F)Nc1ccccc1N2` (centres undefined), the EC50 with Plasmodium falciparum [1] is 359 nM; in the data set with Plasmodium falciparum [2] it was 462 nM. Besides, the CC50 in data set [3] is above 100 µM.
For the compound `CC(C)(C)CC(C)(C)Nc1c(-c2ccccc2OC(=O)c2ccc([N+](=O)[O-])cc2)nc2ccccn12`, the figures for the EC50 in the data set with Plasmodium falciparum [1] and with Plasmodium falciparum [2] were 5.28 nM and 251 nM, respectively. The compound further yielded a CC50 in data set [3] of 1.49 µM.
For the compound `CC(=O)Nc1ccc(-c2nc3c4ccccc4c4ccc(I)cc4c3[nH]2)cc1`, the EC50 with Plasmodium falciparum [1] came out at 362 nM; in the data set with Plasmodium falciparum [2] it was 296 nM. Moreover, the CC50 in data set [3] was above 100 µM.
For `CCOc1ccccc1-n1c(N)c(C(=O)Nc2ccc(C)cc2)sc1=S`, the EC50 stood at 361 nM in the data set on Plasmodium falciparum [1] and 1320 nM in the data set with Plasmodium falciparum [2]. In data set [3], this compound yielded a CC50 above 100 µM.
The corresponding values for `Cc1ccc(OCC(=O)Nc2cccc(C(=O)O)c2)c(Br)c1` are above 34.9 nM, above 1250 nM and above 10 µM.
The corresponding values for `COc1ccccc1-n1nnnc1SCC(=O)Nc1cc([N+](=O)[O-])ccc1C` are 349 nM, 651 nM and above 100 µM.
In the case of `CCC(C)CNC(=O)c1ccc(OC2CCN(CC3CCCCC3)CC2)c(Cl)c1` (centres undefined), the EC50 with Plasmodium falciparum [1] was 48.4 nM; in the data set with Plasmodium falciparum [2] it was 78.2 nM. In data set [3], this compound displayed a cytotoxic concentration (CC50) above 13.2 µM.
As to `O=C1C(NC2CCCC2)=C(N2CCOCC2)C(=O)c2ccccc21`, the EC50 amounted to 139 nM in the data set on Plasmodium falciparum [1] and 119 nM in the data set with Plasmodium falciparum [2]. In data set [3], this compound gave a CC50 of 37.9 µM.
The corresponding values for `OCCCCCCCCCCC[n+]1ccccc1` are 365 nM, 133 nM and above 100 µM.
The matching figures for `C[N+]1(CC(=O)NNc2c3ccccc3nc3ccccc23)CCOCC1`: 364 nM, 637 nM and above 100 µM.
The matching figures for `CCCCOC(=O)C1=C(C)NC2=C(C(=O)CCC2)C1c1ccc(Cl)c(Cl)c1` (centres undefined): 359 nM, 574 nM and above 100 µM.
Take `COc1ccc(C2CC(=O)C3=C(C2)NC(C)=C(C(=O)OC2CCCCC2)C3c2ccc(F)cc2)cc1OC` (centres undefined): the figures for the EC50 in the data set with Plasmodium falciparum [1] and in the data set on Plasmodium falciparum [2] were 53 nM and 138 nM, respectively. In addition, the CC50 in data set [3] came out at 15.2 µM.
The corresponding values for `CCC(C)OC(=O)C1=C(C)NC2=C(C(=O)CC(c3ccc(Cl)cc3)C2)C1c1cccc(O)c1` (centres undefined) are 147 nM, 1020 nM and 39.6 µM.
In the case of `Fc1ccc(-c2c[n+](Cc3ccc(Cl)cc3)c3n2CCC3)cc1`, the EC50 was found to be 370 nM with Plasmodium falciparum [1] and 1140 nM in the data set on Plasmodium falciparum [2]. In data set [3], this compound yielded a CC50 above 100 µM.
The corresponding values for `CCCCC(=O)Oc1ccccc1-c1nc2ccccn2c1NC(C)(C)CC(C)(C)C` are below 7.1 nM, 296 nM and 1.92 µM.
The matching figures for `Cn1c(=O)n(Cc2ccccc2)c(=O)c2c1nc(SCC(=O)Nc1ccccc1)n2Cc1ccccc1`: 362 nM, 1850 nM and above 100 µM.
In the case of `CCOC(=O)c1nnn(-c2nonc2N)c1-c1ccc(C)cc1`, the EC50 was 367 nM in the data set on Plasmodium falciparum [1] and 304 nM with Plasmodium falciparum [2]. Also, the CC50 in data set [3] is above 100 µM.
With `CCOc1ccc(-c2cc(C)[n+](CCO)c(-c3ccc(OCC)cc3)c2)cc1`, the EC50 in the data set on Plasmodium falciparum [1] came to 352 nM; in the data set on Plasmodium falciparum [2] it was 1080 nM. In addition, the CC50 in data set [3] is above 100 µM.
On to `COc1ccc(C=NNc2nc3ccccc3[nH]2)cc1OC`, for which the EC50 is 128 nM with Plasmodium falciparum [1] and 243 nM in the data set on Plasmodium falciparum [2]. Further, the CC50 in data set [3] stood at 36.5 µM.
The matching figures for `CCC(C(=O)Oc1ccccc1-c1nc2cc(C)ccn2c1NC(C)(C)CC(C)(C)C)c1ccccc1` (centres undefined): 34.7 nM, 894 nM and above 10 µM.
The matching figures for `CCOC(=O)c1c(C)n(Cc2ccccc2)c2c1cc(O)c1c2c(-c2ccccc2)nn1-c1ccccc1`: 345 nM, 1060 nM and above 100 µM.
In the case of `CCCOC(=O)C1=C(C)NC2=C(C(=O)CC(c3ccc(OC)c(OC)c3)C2)C1c1cccc(Br)c1` (centres undefined), the EC50 in the data set on Plasmodium falciparum [1] is 74.4 nM; in the data set on Plasmodium falciparum [2], 322 nM. The compound further had a CC50 in data set [3] of 21.6 µM.
The matching figures for `Cc1ccnc(NC(c2ccncc2)c2ccc3cccnc3c2O)c1` (centres undefined): 357 nM, 1000 nM and above 100 µM.
With `COc1cc(C(=O)ON=C(N)Cc2cccc3ccccc23)cc(OC)c1OC`, the results for the EC50 in the data set on Plasmodium falciparum [1] and in the data set with Plasmodium falciparum [2] were 171 nM and 280 nM, respectively. The compound also yielded a CC50 in data set [3] of 48.1 µM.
Regarding `CCOC(=O)CN(C)Cc1ccc2c(NC(=O)c3ccc(C)s3)c(C(=O)OC)sc2n1`, the EC50 in the data set with Plasmodium falciparum [1] turned out to be 354 nM; in the data set with Plasmodium falciparum [2], 766 nM. Besides, the CC50 in data set [3] is above 100 µM.
The corresponding values for `O=C(Nc1ccc(-n2cccn2)cc1)C1CCN(CC=Cc2ccccc2)CC1` are 344 nM, 887 nM and above 99.8 µM.
With `O=[N+]([O-])c1cccc(-c2ccc(C=NNc3nc4ccccc4[nH]3)o2)c1`, the EC50 worked out at 344 nM in the data set with Plasmodium falciparum [1] and 379 nM in the data set on Plasmodium falciparum [2]. In data set [3], this compound returned a CC50 above 100 µM.
For the compound `Cc1cc(NC(=O)C=Cc2ccccc2Cl)ccc1Br`, the EC50 in the data set with Plasmodium falciparum [1] was determined as 344 nM; in the data set on Plasmodium falciparum [2], 1270 nM. This compound also had a CC50 in data set [3] above 100 µM.
The corresponding values for `Cc1cc(C)c2c(c1)-c1c(ssc1=S)C(C)(C)N2C(=O)c1ccccc1` are 370 nM, 523 nM and above 100 µM.
The corresponding values for `CCOC(=O)c1[nH]c(C)c(Cc2ccc(OCC)cc2)c1C` are 347 nM, 279 nM and above 100 µM.
For `O=C1C2C(C(=O)N1c1ccccc1F)C1(c3ccccc3)C(=O)C2(c2ccccc2)C(c2ccccc2)=C1c1ccccc1` (centres undefined), the EC50 in the data set on Plasmodium falciparum [1] came to 344 nM; in the data set with Plasmodium falciparum [2], 811 nM. In addition, the CC50 in data set [3] was above 100 µM.
The matching figures for `COc1cccc(C2Sc3ccccc3NC3=C2C(=O)c2ccccc23)c1` (centres undefined): 362 nM, 577 nM and above 100 µM.
`CCCCNc1c2c(c(C#N)c3nc4ccccc4n13)CCC2`: the figures for the EC50 in the data set with Plasmodium falciparum [1] and in the data set on Plasmodium falciparum [2] were 367 nM and 113 nM, respectively. In data set [3], this compound gave a 50% cytotoxic concentration (CC50) above 100 µM.
With `CCSCCOC(=O)C1=C(C)NC2=C(C(=O)CCC2)C1c1ccc(OC)c(Br)c1` (centres undefined), the EC50 in the data set on Plasmodium falciparum [1] was determined as 360 nM; in the data set on Plasmodium falciparum [2], 371 nM. This compound registered a CC50 in data set [3] above 100 µM.
The matching figures for `Cc1ccc(NC(=O)C2CSC(c3cccc(F)c3)N2C(=O)c2ccc(C(C)(C)C)cc2)cc1` (centres undefined): 349 nM, 449 nM and above 100 µM.
The corresponding values for `Cc1c2ccccc2cc(Cc2ccccc2)[n+]1C` are 369 nM, 488 nM and above 100 µM.
The corresponding values for `COc1ccc(C2=C(c3ccc(OC)cc3)C3(c4ccccc4)C(=O)C2(c2ccccc2)C2C(=O)N(c4cc(Cl)ccc4C)C(=O)C23)cc1` (centres undefined) are 346 nM, 447 nM and above 100 µM.
As for `CCC(C)NC(=O)c1nn(-c2ccc(OC)cc2)c(=O)c2ccccc12` (centres undefined), the EC50 amounted to 353 nM in the data set with Plasmodium falciparum [1] and 798 nM in the data set on Plasmodium falciparum [2]. In data set [3], this compound gave a CC50 above 100 µM.
The matching figures for `CC(=O)N(C1=C(N2CCC(C)CC2)C(=O)c2ccccc2C1=O)c1cccc(F)c1`: 233 nM, 241 nM and 66.4 µM.
With `CCCCN(C(=O)CCC(=O)Nc1cc(C)on1)C(C(=O)NC1CCCC1)c1ccc(C)o1` (centres undefined), the EC50 was 36.9 nM with Plasmodium falciparum [1] and 22.2 nM in the data set on Plasmodium falciparum [2]. The same compound showed a CC50 in data set [3] above 10 µM.
For `C(=C1\C(c2ccccc2)=Nc2ccccc21)/c1c(-c2ccccc2)[nH]c2ccccc12`, the EC50 was 36.4 nM with Plasmodium falciparum [1] and 210 nM in the data set with Plasmodium falciparum [2]. Also, the CC50 in data set [3] was above 10 µM.
As to `COc1ccc(CNC(=O)C2CNCC2c2ccc(C(F)(F)F)cc2)cc1` (centres undefined), the EC50 in the data set with Plasmodium falciparum [1] was found to be 85.7 nM; in the data set on Plasmodium falciparum [2], 165 nM. Also, in data set [3], half-maximal cytotoxicity (CC50) was put at 24.1 µM.
The corresponding values for `CN1CCc2c(sc3nc(SCc4ccc(Cl)cc4)n(-c4cccc(Cl)c4)c(=O)c23)C1` are 363 nM, 1050 nM and above 100 µM.
For `CC(C)(C)c1csc(NC(=O)c2ccc(S(=O)(=O)N3CCCCC3)cc2)n1`, the EC50 is 175 nM in the data set with Plasmodium falciparum [1] and above 12500 nM with Plasmodium falciparum [2]. Also, the CC50 in data set [3] came to 49.1 µM.
`O=C1CN=C(c2ccccc2)c2cc(Cl)ccc2N1Cc1cc(=O)n2ccccc2n1`: the EC50 in the data set with Plasmodium falciparum [1] worked out at 344 nM; in the data set on Plasmodium falciparum [2], 3550 nM. In data set [3], this compound yielded a CC50 above 100 µM.
Regarding `CCC(Oc1ccc(C(C)(C)CC)cc1C(C)(C)CC)C(=O)Nc1ccc([N+](=O)[O-])cc1O` (centres undefined), the figures for the EC50 in the data set with Plasmodium falciparum [1] and in the data set on Plasmodium falciparum [2] were 348 nM and above 5260 nM, respectively. Besides, in data set [3], the CC50 was above 100 µM.
As for `Oc1c(CN2CCN(Cc3ccc4cccnc4c3O)CC2)ccc2cccnc12`, the values for the EC50 in the data set on Plasmodium falciparum [1] and in the data set with Plasmodium falciparum [2] were 318 nM and 561 nM, respectively. For the same compound, the CC50 in data set [3] was above 89.3 µM.
The corresponding values for `CCC1(C)CC(CCNCc2ccccc2O)(c2ccc(OC)cc2)CCO1` (centres undefined) are 76.5 nM, 455 nM and 21.4 µM.

One may read the EC50 as the concentration needed to bring the measured effect to its halfway point. Broadly, the CC50 is the concentration giving 50% cytotoxicity. The low end stands for greater toxicity to the cells, the high end for lower toxicity to the cells.
